The values below come from paper PMC8041193 (PLoS ONE, 2021).

Ends that are not written are not given here.

The conditions of data set [1]: cited from earlier work. The source says: In vitro dissolution is the standard method used in the pharmaceutical industry to assess drug release from solid oral dosage forms and to predict the release profile in the GI tract by simulating the GI environment with appropriate buffer media. In vivo/ in vitro correlation analysis (IVIVC) was specifically designed to assess whether in vitro predictions match in vivo drug behavior. However, in this study IVIVC could not be performed for several reasons, including the lack of an injectable formulation, an immediate release and other multiple other extended release formulations and the ...

The nature of data set [2]: Non compartmental pharmacokinetic analysis of LA in porcine intestinal fluid. To be noted: pig intestinal fluid, oral LA 1 mg total (~0.05 mg/kg). In kind it is in vivo. How it is done: Non compartmental pharmacokinetic analyses of LA in the intestinal fluid was performed using commercially available software (Phoenix® WinNonlin® Software version 8.3, Certara, Princeton, NJ). The pharmacokinetic parameters estimated for LA in intestinal fluid after oral administration included the elimination rate constant (λz), elimination half life (HLλz), the area under the curve from time zero to the last time point (AUClast), the maximum concentration (Cmax), time to maximum concentration (Tmax), the mean drug residence time from time zero to the last time point (MRTlast), which were calculated using the linear log trapezoidal method.

The nature of data set [3]: LA concentration in porcine intestinal fluid collected via in vivo ultrafiltration probes, UPLC-MS/MS.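 For all read-outs here: pigs aged 6–8 weeks and weighing 15–20 kg, intestinal fluid sampled through surgically implanted ultrafiltration probes whose placement was checked post mortem.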 To be noted: pig; for level at time molar at 1 h / level at time molar at 2 h / level at time molar at 3 h / level at time molar at 4 h: female, Yorkshire cross, po, 1 mg; for Concentration of LA fragments in duodenal and jejunal samples: oral 1 mg LA, fragments detected, all concentrations below the LLOQ, UPLC-MS/MS.
Experimental: Three female Yorkshire cross pigs weighing between 15–20 kg and 6–8 weeks of age were used in this study. […] All pigs were considered healthy on the basis of physical exams, which were performed upon delivery and after a minimum of 3 days’ acclimatization. The animals were housed individually in stainless steel pens to allow comprehensive observation of changes to the animal’s behavior, feed consumption, and volume or character of excreta. While housed in pens, each animal had free access to water, and commercial pig pelleted feed was provided twice daily.
Pigs were sedated with injection of ketamine (11 mg/kg, IM; Vedco) and xylazine (0.25 mg/kg, IM; Akorn Animal Health). Intravenous administration of buprenorphine (0.04 mg/kg; Par Pharmaceutical) and intramuscular administration of flunixin meglumine (2.2 mg/kg; Norbrook) and ceftiofur sodium (Excede for Swine, 8mg/kg; Med Pharmex Inc) were given for analgesia and infection prophylaxis, respectively. Pigs were intubated and maintained under general anesthesia using isoflurane delivered in 100% oxygen during the surgery. The abdomen was approached via midline laparotomy, and the pylorus was located. The duodenum was traced from the pylorus to an accessible point on the left side of the abdomen approximately 15–18 cm distal to the pylorus (Fig 2). The intestine was lifted and an incision was made using a #11 scalpel blade, piercing the anti-mesenteric intestinal wall into the lumen. A guide needle was used to introduce the UF probe into the duodenum threading the probe proximally toward the pylorus. The guide needle was subsequently removed, taking care to leave the UF probe in place [20]. The three loops of the UF probe remained within the intestine, and each probe was secured in the intestine by using a Halstead pattern suture around the probe, followed by a finger trap suture pattern using 3–0 Vicryl (Henry Schein). The nonpermeable connection tubing of the UF probe was extended to the lateral body wall, paramedian to the incision, and retrieved through a guide needle in order to exteriorize the tubing. The tubing was secured outside the animal by suturing the tubing to the skin using 3–0 nylon suture (Fig 3). The tubing was attached to a needle inserted into a vacutainer for sample collection during the remainder of the experiment. A second UF probe was placed into the jejunum 20 cm distal to the duodenum using the same methodology (Fig 2). The abdomen was closed in a routine manner. The pigs were monitored for assessment of pain each day of the experiment and given buprenorphine as an analgesic medication if necessary.
The formulated beads were weighed and placed into gelatin capsules prior to dosing.

The mark [4] stands for this setting: distal duodenum, mean of 3 dose replicates.
Where [5] appears, read: proximal jejunum, mean of 3 dose replicates.
Setting [6] is: intestinal fluid (distal duodenum).
[7] abbreviates: intestinal fluid (proximal jejunum).
The mark [8] stands for this setting: intestinal fluid, distal duodenum.
Setting [9] is: intestinal fluid, proximal jejunum.

Regarding GGVLVQPG [LA, Larazotide acetate], the “Concentrations in human plasma” value in data set [1] (all groups administered 0.25, 1, 4 and 8 mg LA, below the LOQ) was less than 0.5 ng/mL. Besides, the Plasma concentrations in data set [1] (human plasma, oral LA (12mg), HPLC-MS/MS, all below LLOQ) was less than 0.5 ng/mL. For the same substance, the “MRTlast, mean residence time from time zero to the last time point” value in data set [2] (distal duodenum, dose replicate # 1) came to 1.58 h; in data set [2] (distal duodenum, dose replicate # 2), 1.42 h; in data set [2] (distal duodenum, dose replicate # 3) it was 1.65 h; in data set [2] (setting [4]), 1.55 h; in data set [2] (proximal jejunum, dose replicate # 1), 1.31 h; in data set [2] (proximal jejunum, dose replicate # 2), 1.26 h. In addition, the “MRTlast, mean residence time from time zero to the last time point” value is reported as 1.53 h in data set [2] (proximal jejunum, dose replicate # 3) and 1.37 h in data set [2] (setting [5]). The entries for the “AUClast, area under the curve from time zero to the last time point” value in data set [2] (setting [4]) and in data set [2] (setting [5]) were 770 ng·h/mL and 910 ng·h/mL, respectively. In addition, the results for the “Cmax, maximum concentration” value in data set [2] (setting [4]) and in data set [2] (setting [5]) were 530 ng/mL and 780 ng/mL, respectively. Further, the “HLλz, elimination half life” value in data set [2] (setting [4]) is 0.65 h; in data set [2] (setting [5]) it was 0.76 h. In addition, the “Tmax, time to the maximum concentration” value in data set [2] (setting [4]) and in data set [2] (setting [5]) was 1 h throughout. Besides, the “Λz, elimination rate constant” value in data set [2] (setting [4]) was 1.14 h⁻¹; in data set [2] (setting [5]), 1.0 h⁻¹. In addition, the level at time molar at 1 h in data set [3] (setting [6]) was 0.74 ± 0.3 µM; in data set [3] (setting [7]) it was 1.1 ± 0.48 µM; in data set [3] (setting [8]), 0.74 µM; in data set [3] (intestinal fluid, distal duodenum, LA concentration (µM), oral 1 mg LA human clinical formulation, 1h, case number 1, single measurement), 0.32 µM; in data set [3] (intestinal fluid, distal duodenum, LA concentration (µM), oral 1 mg LA human clinical formulation, 1h, case number 2, single measurement), 0.98 µM; in data set [3] (intestinal fluid, distal duodenum, LA concentration (µM), oral 1 mg LA human clinical formulation, 1h, case number 3, single measurement), 0.93 µM. The level at time molar at 1 h in data set [3] (setting [9]) worked out at 1.1 µM; in data set [3] (intestinal fluid, proximal jejunum, LA concentration (µM), oral 1 mg LA human clinical formulation, 1h, case number 1, single measurement) it was 0.65 µM; in data set [3] (intestinal fluid, proximal jejunum, LA concentration (µM), oral 1 mg LA human clinical formulation, 1h, case number 2, single measurement) it was 1.76 µM; in data set [3] (intestinal fluid, proximal jejunum, LA concentration (µM), oral 1 mg LA human clinical formulation, 1h, case number 3, single measurement), 0.88 µM. The level at time molar at 2 h in data set [3] (setting [6]) worked out at 0.27 ± 0.14 µM; in data set [3] (setting [7]), 0.25 ± 0.13 µM; in data set [3] (setting [8]) it was 0.27 µM; in data set [3] (intestinal fluid, distal duodenum, LA concentration (µM), oral 1 mg LA human clinical formulation, 2h, case number 1, single measurement), 0.14 µM; in data set [3] (intestinal fluid, distal duodenum, LA concentration (µM), oral 1 mg LA human clinical formulation, 2h, case number 2, single measurement), 0.21 µM; in data set [3] (intestinal fluid, distal duodenum, LA concentration (µM), oral 1 mg LA human clinical formulation, 2h, case number 3, single measurement) it was 0.47 µM. For the same substance, the level at time molar at 2 h was 0.25 µM in data set [3] (setting [9]); 0.13 µM in data set [3] (intestinal fluid, proximal jejunum, LA concentration (µM), oral 1 mg LA human clinical formulation, 2h, case number 1, single measurement); 0.18 µM in data set [3] (intestinal fluid, proximal jejunum, LA concentration (µM), oral 1 mg LA human clinical formulation, 2h, case number 2, single measurement); 0.43 µM in data set [3] (intestinal fluid, proximal jejunum, LA concentration (µM), oral 1 mg LA human clinical formulation, 2h, case number 3, single measurement). Moreover, the level at time molar at 3 h was found to be 0.12 ± 0.09 µM in data set [3] (setting [6]); 0.09 ± 0.1 µM in data set [3] (setting [7]); 0.12 µM in data set [3] (setting [8]); 0.03 µM in data set [3] (intestinal fluid, distal duodenum, LA concentration (µM), oral 1 mg LA human clinical formulation, 3h, case number 1, single measurement); 0.09 µM in data set [3] (intestinal fluid, distal duodenum, LA concentration (µM), oral 1 mg LA human clinical formulation, 3h, case number 2, single measurement); 0.25 µM in data set [3] (intestinal fluid, distal duodenum, LA concentration (µM), oral 1 mg LA human clinical formulation, 3h, case number 3, single measurement). In addition, the level at time molar at 3 h in data set [3] (setting [9]) stood at 0.09 µM; in data set [3] (intestinal fluid, proximal jejunum, LA concentration (µM), oral 1 mg LA human clinical formulation, 3h, case number 1, single measurement) it was 0.04 µM; in data set [3] (intestinal fluid, proximal jejunum, LA concentration (µM), oral 1 mg LA human clinical formulation, 3h, case number 3, single measurement), 0.22 µM. Moreover, the level at time molar at 4 h is 0.03 ± 0.01 µM in data set [3] (setting [6]); 0.03 ± 0.04 µM in data set [3] (setting [7]); 0.03 µM in data set [3] (setting [8]); 0.03 µM in data set [3] (intestinal fluid, distal duodenum, LA concentration (µM), oral 1 mg LA human clinical formulation, 4h, case number 1, single measurement); 0.02 µM in data set [3] (intestinal fluid, distal duodenum, LA concentration (µM), oral 1 mg LA human clinical formulation, 4h, case number 2, single measurement); 0.03 µM in data set [3] (intestinal fluid, distal duodenum, LA concentration (µM), oral 1 mg LA human clinical formulation, 4h, case number 3, single measurement). The level at time molar at 4 h was found to be 0.03 µM in data set [3] (setting [9]) and 0.09 µM in data set [3] (intestinal fluid, proximal jejunum, LA concentration (µM), oral 1 mg LA human clinical formulation, 4h, case number 2, single measurement). The “Continued presence of LA, concentration in proximal jejunum” value in data set [3] (fasted, oral 1 mg LA clinical formulation, proximal jejunum, 2–4 hours, range of individual samples) was 0.00 to 0.43 µM. Moreover, the “LA concentration” value was found to be 0.00 µM in data set [3] (oral 1 mg LA human clinical formulation, proximal jejunum, 0h, case number 2, single measurement); 0.00 µM in data set [3] (oral 1 mg LA human clinical formulation, proximal jejunum, 0h, case number 3, single measurement); 0.00 µM in data set [3] (oral 1 mg LA human clinical formulation, proximal jejunum, 3h, case number 2, single measurement, below LOD reported as zero); 0.00 µM in data set [3] (oral 1 mg LA human clinical formulation, proximal jejunum, 4h, case number 1, single measurement, below LOD reported as zero); 0.00 µM in data set [3] (oral 1 mg LA human clinical formulation, proximal jejunum, 4h, case number 3, single measurement, below LOD reported as zero).
In the case of H-GGVLVQP-OH [Fragment 3], the “Concentration of LA fragments in duodenal and jejunal samples” value (from here on “Concentration of LA fragments”) in data set [3] was less than 150 nM.
For H-GVLVQPG-OH [Fragment 1], the “Concentration of LA fragments” value in data set [3] was less than 150 nM.
With H-VLVQPG-OH [Fragment 2], in data set [3], the “Concentration of LA fragments” value is less than 160 nM.
On the same count and under the same terms, for H-Val-Leu-Val-Gln-Pro-OH [Fragment 4] the value was less than 170 nM.
